In paper PMC5756575, “In Vitro Biotransformation, Safety, and Chemopreventive Action of Novel 8-Methoxy-Purine-2,6-Dione Derivatives” (Applied Biochemistry and Biotechnology, 2017):
Like-named read-outs stand apart in the source and are kept apart here.

Key:
[1] = system: Cunninghamella elegans 1906 DMS; test: Cunninghamella biotransformation assay, C. elegans; format: in vitro ADME; details: 7-day incubation; for % of compound/metabolite in C. elegans: 0.5 mg/mL, LC-MS/MS; for % of tested (parental) compound metabolized at the end of experiment: C. elegans
Procedure: Three different strains of Cunninghamella were used: Cunninghamella echinulata NRRL 1384, Cunninghamella blakesleeana 1908 DMS, and Cunninghamella elegans 1906 DMS. The first was provided by Dr. A.J. Carnell (University of Liverpool, UK), whereas the two remaining were purchased from Deutsche Sammlung von Mikroorganismen und Zellkulturen GmbH (DMSZ, Braunschweig, Germany).
Cunninghamella strains were cultivated on solid potato dextrose agar (PDA) plates at 28 °C. After 4 days, a liquid fermentation basal medium was prepared by the addition of 6 g of D-glucose, 1.5 g of NaCl, 1.5 g of yeast extract from Saccharomyces cerevisiae, and 1.5 g of K2HPO4 to 300 mL of distilled water. Aliquots of 24.5 mL of medium were inoculated with 300 μL of suspension of fungal spores obtained after wetting colonies in PDA. The fungi were incubated with shaking until the formation of spherical clumps.
Compounds 2–4 were evaluated in this experiment. Once microorganisms formed spherical clumps in the preliminary incubation, the corresponding tested compound was added to the broth and the mixture was incubated for 7 days. Two control experiments were also performed, in the absence of compound and fungus, respectively. Biotransformation progress was monitored by TLC and by liquid chromatography electrospray ionization-tandem mass spectrometry (LC-MS/MS). Monitoring was performed at four different incubation times: 30 min, 3 days, 5 days, and 7 days.
To analyze metabolites in LC-MS/MS, an aliquot of 500 μL of filtered sample was taken and extracted with 500 μL of dichloromethane. The organic fraction was dried with sodium sulfate, filtered, and evaporated. The obtained residue was analyzed in LC-MS/MS. At the end of experiment, all the remaining medium was extracted with 25 mL of dichloromethane after separating the fungal clumps by filtration over cellulose filters.
Agilent 1100 HPLC system (Agilent Technologies, Waldbronn, Germany) equipped with a Xbridge™ C18 analytical column (2.1 × 30 mm, […]; Waters, Dublin, Ireland) was used in the chromatographic separation of LC-MS/MS analysis. An elution gradient of acetonitrile and water, with 0.1% of formic acid, was used as a mobile phase. MS spectra were taken at Applied Biosystems MDS Sciex API 200 triple quadrupole mass analyzer (Concord, Ontario, Canada) with an electrospray ionization (ESI) interface between HPLC and MS.

[2] = system: Vibrio harveyi BB7XM; test: Vibrio harveyi mutagenicity assay, BB7XM; format: cell-based; details: 40 ng/mL; for MI (mutagenicity index): mutagenic if MI above 2.0; for Number of revertants per plate, Mean ± SD: mutagenicity
Procedure: From them, 0.2 mM working solutions were prepared by dilution with water. […] Working solutions were prepared by 1:100 dilution of stock solution in water, and final compound concentration assayed was 40 ng/mL.
(§1) Four Vibrio harveyi strains were used in this study: a wild-type BB7 (naturally found in the Baltic Sea) and three genetically modified strains, namely BB7M (obtained by the introduction of pAB1273 plasmid containing the genes mucA and mucB to enhance the error-prone DNA repair), BB7X (hypersensitive to UV radiation after genetic modification with Tn5TpMCS), and BB7XM (containing the two abovementioned modifications). These strains were kindly provided by Prof. G. Węgrzyn (Department of Molecular Biology, University of Gdańsk, Poland).
(§2) It causes point mutations at the genome as it induces G:C → A:T transitions in Vibrio harveyi strains and in other bacteria such as Escherichia coli and S. typhimurium. […] Next, its working solution was prepared in sterile water, being 40 ng/mL its final concentration.
To perform the V. harveyi mutagenicity test, 10 μL of a working solution of the tested compound (100 μg/mL) were added to V. harveyi bacterial culture (OD600 = 0.1) in NaCl-containing BOSS liquid medium, being 40 ng/mL the final concentration of the tested compound. […] Then, an inoculum containing 5 × 10^6 cells was added to solid BOSS agar plate supplemented with neomycin sulfate at a final concentration of 100 μg/mL. Samples were left incubating 48 h at 30 °C, and revertant colonies were counted manually.

[3] = system: Salmonella typhimurium TA100; test: Ames mutagenicity test; format: cell-based
Procedure: From them, 0.2 mM working solutions were prepared by dilution with water. […]
(§3) In the Ames test, Salmonella typhimurium TA100 strain was used. This strain has a base-pair substitution that can be reverted by mutations at GC pairs. In addition, it contains mutations at uvrB-bio and rfa genes to eliminate excision repair mechanisms and to make the bacteria more permeable to chemicals, respectively. Finally, TA100 also includes pKM101 plasmid, which enhances both chemical and UV-induced mutagenesis via an increase in the error-prone recombinational DNA repair pathway. TA100 strain of S. typhimurium was provided by Dr. T. Nohmi (Division of Genetics and Mutagenesis, National Institute of Hygienic Sciences, Tokyo, Japan). V. harveyi and S. typhimurium bacterial cultures were maintained at 30 and 37 °C, respectively.
It causes point mutations at the genome as it induces G:C → A:T transitions in Vibrio harveyi strains and in other bacteria such as Escherichia coli and S. typhimurium. […]
S. typhimurium was cultivated in a fresh medium 12 h prior to a test. To perform mutagenicity assay, 100 μL of an overnight culture (containing approx. 1 × 10^8 to 2 × 10^8 bacteria) were inoculated along with 50 μL of a tested compound in 2 mL of top agar supplemented with traces of histidine and of biotin. Then the mixture was added over the surface of GM agar plates and was left incubating 48 h at 37 °C. Afterwards, the colonies were counted manually.

[4] = system: Vibrio harveyi BB7; test: Vibrio harveyi antimutagenicity assay against NQNO, BB7; format: cell-based; details: for % inhibition of NQNO mutagenicity / Number of revertants per plate, Mean ± SD: BB7, compound 40 ng/mL + NQNO 40 ng/mL; for Number of revertants per plate, Mean ± SD: antimutagenicity, NQNO line = NQNO as a single compound; for chemopreventive (antimutagenic) effect, class: wild BB7 strain, against NQNO
Excerpt: as §1, §2
(§4) Procedure followed in the V. harveyi antimutagenicity assay was similar to the mutagenicity method described before. […] The results were expressed as the inhibition percentage of mutagenic effect, which was calculated with the formula: 100 − [(R 1/R 2) × 100], where R 1 is the number of revertants per plate in the presence of both mutagen and tested substance, and R 2 is the number of revertants per plate in the presence of mutagen. […] S. typhimurium antimutagenicity assay was based on similar assumptions as the V. harveyi antimutagenicity test. In this case, the chemopreventive activity was determined at two concentrations of a tested compounds and a standard mutagen, i.e., 40 and 500 ng/mL.

[5] = system: Vibrio harveyi BB7X; test: Vibrio harveyi antimutagenicity assay against NQNO, BB7X; format: cell-based; details: compound 40 ng/mL + NQNO 40 ng/mL; for Number of revertants per plate, Mean ± SD: antimutagenicity, NQNO line = NQNO as a single compound
Excerpt: as §1, §2, §4

[6] = system: Vibrio harveyi BB7XM; format: cell-based; details: compound 40 ng/mL + NQNO 40 ng/mL; for Number of revertants per plate, Mean ± SD: antimutagenicity, NQNO line = NQNO as a single compound
Excerpt: as §1, §2, §4

[7] = system: Salmonella typhimurium TA100; test: S. typhimurium antimutagenicity assay against NQNO; format: cell-based; details: for Number of revertants per plate, Mean ± SD: antimutagenicity, NQNO line = NQNO as a single compound
Excerpt: as §3, §2, §4

[8] = TA100, 40 ng/mL, mutagenic if MI >2.0
[9] = TA100, 500 ng/mL (NQNO control stated as 40 ng/mL in method)
[10] = TA100, compound and NQNO 40 ng/mL
[11] = TA100, compound and NQNO 500 ng/mL

SMILES | % of compound/metabolite in C. elegans [1] | % of tested (parental) compound metabolized at the end of experiment [1] | MI (mutagenicity index) [2] | Number of revertants per plate, Mean ± SD [2] | Number of revertants per plate, Mean ± SD ([3]; TA100, 40 ng/mL) | MI (mutagenicity index) [3, 8] | MI (mutagenicity index) [3, 9] | Number of revertants per plate, Mean ± SD [3, 9] | % inhibition of NQNO mutagenicity [4] | Number of revertants per plate, Mean ± SD [4] | chemopreventive (antimutagenic) effect, class [4] | Number of revertants per plate, Mean ± SD [5] | % inhibition of NQNO mutagenicity [5] | Number of revertants per plate, Mean ± SD [6] | % inhibition of NQNO mutagenicity [6] | % inhibition of NQNO mutagenicity [7, 10] | % inhibition of NQNO mutagenicity [7, 11] | Number of revertants per plate, Mean ± SD [7, 10] | Number of revertants per plate, Mean ± SD [7, 11]
COc1nc2c(c(=O)n(C)c(=O)n2C)n1CCCC(=O)NCc1ccccc1 [Compound 3, N-benzyl-4-(8-methoxy-1,3-dimethyl-2,6-dioxo-purin-7-yl)butanamide] | 99.4% | 0.6% | 1.1 | 35 ± 7 | 53 ± 11 | 1.5 | 0.2 | 6 ± 3 | 29% | 38 ± 9 | moderate or a close to moderate | 45 ± 9 | 58% | 65 ± 7 | 15% | 96% | 92% | 4 ± 2 | 8 ± 3
COc1nc2c(c(=O)n(C)c(=O)n2C)n1CCCC(=O)N1CCN(c2ccccc2)CC1 [Compound 4, 8-methoxy-1,3-dimethyl-7-[4-oxo-4-(4-phenylpiperazin-1-yl)butyl]purine-2,6-dione] | 47.0% | 53.0% | 1.2 | 41 ± 9 | 48 ± 7 | 1.3 | 0.4 | 10 ± 1 | 53% | 26 ± 6 | strong (higher than 40%) | 47 ± 10 | 56% | 70 ± 7 | 9% | 93% | 88% | 6 ± 2 | 11 ± 3
